Experimental findings from patent US4012394A, “Indole derivatives” (Labaz, priority 1973, dated 1977) are described below.

Each structure is given as a SMILES string. Where two headings read alike, the source gives them in different places.

The test system of series [1] is vena cave inferior of the rat (film of fibrin). Nature of the series: fibrinolytic activity, procedure of TODD adapted to the vena cave inferior of the rat. To be noted: for change in vivo at 10 mg/kg: ip, 40 min, read-out: Fibrinolytic index in % (average increase in fibrinolytic effect compared with control animals); for fibrinolytic index: 100 mg/kg. It counts as in vivo. The procedure:
Forschumg, 20, 358, 1970. […]
Male rats weighing 150 to 200 g. and having fasted for 24 hours were divided into two groups. The animals of one group were given the above-indicated dose of the compound to be tested. […] After 40 minutes, the treated animals were sacrificed simultaneously with the control animals, the veins immediately removed, rinsed with physiological salt solution, frozen and cut into pieces having a thickness of 20 microns. On each piece, a film of fibrin was formed by the application of a bovine fibrinogenous solution, rich in plasminogen, and of a thrombin solution.
All the preparations were then fixed with a 10% solution of neutral formol, stained with haematoxylin of Harris and covered with gelatine.
Value = 0: The film of fibrin was intact.
Value = 1: The lysis zones in the endothelium were disseminated.
Value = 2:The lysis zones were larger and more or less joined.
Value = 3:The fibrin in contact with the endothelium was almost completely decomposed.
The fibrinolytic index represents the average of the values of the reactions obtained for each incubation.

A short description of series [2]: acute toxicity in the rat. To be noted: rat, in vivo. How it is done: (§1) A certain number of toxicity tests were also carried out on rats and mice and in particular acute toxicity tests.
For series [3], the system named is carragheenin oedema. Kind of series: JANSSEN test, carragheenin-induced paw oedema in the rat. In kind it is in vivo. As to conditions: for ED50: 3 h, read-out: AD50 (amount of compound required to ensure a 50% reduction of the oedema); for anti-inflammatory activity (in words): in vivo. The procedure: The anti-inflammatory activity of the compounds of the invention was determined on the rat by means of the JANSSEN test involving the use of carragheenin as inflammatory agent.
Into the plantar aponeurosis of the back paws of a group of female rats 0.05 ml. of a 1 % suspension of carragheenin was injected one hour after the compound to be tested had been administered by oral route. The size of the paw was measured by plethysmograph both before and three hours after administration of the carragheenin. The anti-inflammatory activity was calculated as the percentage of reduction of the resulting oedema as compared with control animals which had received the same dose of carragheenin without any anti-inflammatory agent. The AD50 was taken as the amount of compound required to ensure a 50% reduction of the oedema.

The nature of series [4]: in vivo. As to conditions: rat, in vivo. How it is done:
(§2) As another means of evaluating the utility of the compounds of the invention as anti-inflammatory agents in comparison with the three substances indicated above, trials were carried out on fasting rats in order to determine the degree to which the compounds studied produced gastric ulcers in the animals so treated.

The subject of series [5] is gastric ulcers. Kind of series: in vivo. To be noted: for irritant (ulcer-producing) action relative to Compound A: fasting rats, gastric ulcers, times as irritant as Compound A. The procedure: as §2
Series [6] in a line: acute toxicity in the mouse. To be noted: in vivo, seven days of observation.
Series [7] relates to rats. Nature of the series: acute toxicity in the rat. As to conditions: compared with indomethacin and/or phenylbutazone. The procedure: as §1
[8] abbreviates: 10 mg/kg, intraperitoneal, rat, 40 minutes.

As to `CC(C)c1c(C(=O)c2ccccn2)c2ccccc2n1CCN(C)C` [(1-β-dimethylaminoethyl-2-isopropyl-3-indolyl) (2-pyridyl) ketone], the change in vivo at 10 mg/kg in series [1] (Rattus norvegicus) is 21%.
As for `CC(C)c1c(C(=O)c2cccnc2)c2ccccc2n1CCN(C)C` [(1-β-dimethylaminoethyl-2-isopropyl-3-indolyl) (3-pyridyl) ketone], the change in vivo at 10 mg/kg in series [1] (Rattus norvegicus) turned out to be 24%.
On to `CC(C)c1c(C(=O)c2ccncc2)c2ccccc2n1CCN(C)C` [(1-β-dimethylaminoethyl-2-isopropyl-3-indolyl) (4-pyridyl) ketone], for which the change in vivo at 10 mg/kg in series [1] (Rattus norvegicus) was 44%.
`CCCc1c(C(=O)c2ccccn2)c2ccccc2n1CCN(C)C` [(1-β-dimethylaminoethyl-2-n-propyl-3-indolyl) (2-pyridyl) ketone]: the change in vivo at 10 mg/kg in series [1] (Rattus norvegicus) was found to be 50%.
As to `CN(C)CCn1c(-c2ccccc2)c(C(=O)c2ccccn2)c2ccccc21` [(1-β-dimethylaminoethyl-2-phenyl-3-indolyl) (2-pyridyl) ketone], in series [1] (Rattus norvegicus), the change in vivo at 10 mg/kg was 50%.
As for `CN(C)CCn1c(-c2ccccc2)c(C(=O)c2cccnc2)c2ccccc21` [(1-β-dimethylaminoethyl-2-phenyl-3-indolyl) (3-pyridyl) ketone], in series [1] (Rattus norvegicus), the change in vivo at 10 mg/kg came to 96%.
For orientation: LD50 means the dose expected to kill half of the subjects tested. A low value points to greater toxicity. In series [2] (po), `CC(C)c1c(C(=O)c2cccnc2)c2ccccc2n1CCCN(C)C` [(1-γ-dimethylaminopropyl-2-isopropyl-3-indolyl) (3-pyridyl) ketone] gave a 50% lethal dose (LD50) above 2000 mg/kg.
For the compound `CC(C)c1c(C(=O)c2ccncc2)c2ccccc2n1CCCN(C)C` [(1-γ-dimethylaminopropyl-2-isopropyl-3-indolyl) (4-pyridyl) ketone], the change in vivo at 10 mg/kg in series [1] (Rattus norvegicus) worked out at 30%.
In the case of `CCCc1c(C(=O)c2ccccn2)c2ccccc2n1CCCN(C)C` [(1-γ-dimethylaminopropyl-2-n-propyl-3-indolyl) (2-pyridyl) ketone], the change in vivo at 10 mg/kg in series [1] (Rattus norvegicus) came out at 66%.
In the case of `CN(C)CCCn1c(-c2ccccc2)c(C(=O)c2ccccn2)c2ccccc21` [(1-γ-dimethylaminopropyl-2-phenyl-3-indolyl) (2-pyridyl) ketone], in series [1] (Rattus norvegicus), the change in vivo at 10 mg/kg was found to be 46%.
As for `CN(C)CCCn1c(-c2ccccc2)c(C(=O)c2cccnc2)c2ccccc21` [(1-γ-dimethylaminopropyl-2-phenyl-3-indolyl) (3-pyridyl) ketone], in series [1] (Rattus norvegicus), the change in vivo at 10 mg/kg worked out at 46%.
For the compound `CC(C)c1c(C(=O)c2ccccn2)c2ccccc2n1CCCN1CCCCC1` [(1-γ-piperidinopropyl-2-isopropyl-3-indolyl) (2-pyridyl) ketone], in series [1] (Rattus norvegicus), the change in vivo at 10 mg/kg amounted to 123%.
The same measure, in the same setting: the same measure for `CC(C)c1c(C(=O)c2cccnc2)c2ccccc2n1CCCN1CCCCC1` [(1-γ-piperidinopropyl-2-isopropyl-3-indolyl) (3-pyridyl) ketone]: 18%.
For `CC(C)c1[nH]c2ccccc2c1C(=O)c1cccnc1` [(2-isopropyl-3-indolyl) (3-pyridyl) ketone, reference compound], the change in vivo at 10 mg/kg in series [1] (setting [8]) turned out to be 5%.
With `CC(C)c1[nH]c2ccccc2c1C(=O)c1ccncc1` [(2-isopropyl-3-indolyl)(4-pyridyl) ketone, reference compound], in series [1] (setting [8]), the change in vivo at 10 mg/kg is 10%.
Take `CCCc1[nH]c2ccccc2c1C(=O)c1ccccn1` [(2-n-propyl-3-indolyl)(2-pyridyl) ketone, reference compound]: the fibrinolytic index in series [1] (rat) is 2%.
On the same count and under the same terms, the result for `O=C(c1cccnc1)c1c(-c2ccccc2)[nH]c2ccccc12` [(2-phenyl-3-indolyl)(3-pyridyl) ketone, reference compound] reads 20%.
Turning to `CC(=O)Oc1ccccc1C(=O)O` [Acetylsalicylic acid], the ED50 in series [3] (Rattus norvegicus, po) was determined as 110 mg/kg. Moreover, the “anti-inflammatory activity (in words)” value in series [3] (rat) is “less active than Compound A”. Also, the selectivity ratio in series [4] is 2. Further, the “irritant (ulcer-producing) action relative to Compound A” value in series [5] was “one-and-a-half”.
Regarding `CC(C)c1c(C(=O)c2cccnc2)c2ccccc2n1C` [Compound A, (1-methyl-2-isopropyl-3-indolyl) (3-pyridyl) ketone], the LD50 at 168 h in series [6] (ip, intraperitoneal route) was determined as 3250 mg/kg; in series [6] (po, intragastric route), 900 mg/kg. In addition, in series [3] (Rattus norvegicus, po), the ED50 is 15 mg/kg. In series [7], the “toxicity (in words)” value is “less toxic than both indomethacin and phenylbutazone”. The LD50 was determined as 425 mg/kg in series [2] (ip) and 2400 mg/kg in series [2] (po). The selectivity ratio in series [4] was 20. Moreover, the “distance of irritant dose from anti-inflammatory dose (in words)” value in series [5] (compared with indomethacin, phenylbutazone or acetylsalicylic acid) is reported as “irritant dose is much farther removed from the anti-inflammatory dose”.
On to `COc1ccc2c(c1)c(CC(=O)O)c(C)n2C(=O)c1ccc(Cl)cc1` [Indomethacin], for which the ED50 in series [3] (Rattus norvegicus, po) was determined as 4 mg/kg. In series [3] (rat), the “anti-inflammatory activity (in words)” value is on record as “more powerful anti-inflammatory agent than Compound A”. In series [2] (po), this compound displayed a 50% lethal dose (LD50) of 22.5 mg/kg. Moreover, in series [4], the selectivity ratio worked out at 1.3. For the same compound, the “irritant (ulcer-producing) action relative to Compound A” value in series [5] is “sixty”.
Regarding `CCCCC1C(=O)N(c2ccccc2)N(c2ccccc2)C1=O` [Phenylbutazone], in series [3] (oral, rat, one hour before carragheenin, oedema measured three hours after), the ED50 came to 22 mg/kg. Moreover, the “anti-inflammatory activity (in words)” value in series [3] (rat) is on record as “less active than Compound A”.
Take `CN(C)CCn1c(-c2ccc(F)cc2)c(C(=O)c2cccnc2)c2ccccc21` [[1-β -dimethylaminoethyl-2-(4-fluoro-phenyl)-3-indolyl] (3-pyridyl) ketone]: the change in vivo at 10 mg/kg in series [1] (Rattus norvegicus) stood at 90%.
The same measure, in the same setting: the same measure for `CN(C)CCn1c(-c2ccc(Cl)cc2)c(C(=O)c2cccnc2)c2ccccc21` [[1-β-dimethylaminoethyl-2-(4-chloro-phenyl)-3-indolyl] (3-pyridyl) ketone]: 40%.
On the same count and under the same terms, the result for `CN(C)CCn1c(-c2ccc(Cl)cc2)c(C(=O)c2ccncc2)c2ccccc21` [[1-β-dimethylaminoethyl-2-(4-chloro-phenyl)-3-indolyl] (4-pyridyl) ketone] reads 42%; that for `CN(C)CCn1c(-c2ccc(F)cc2)c(C(=O)c2ccncc2)c2ccccc21` [[1-β-dimethylaminoethyl-2-(4-fluoro-phenyl)-3-indolyl] (4-pyridyl) ketone], 50%.
The same measure, in the same setting: the same measure for `COc1ccc(-c2c(C(=O)c3ccccn3)c3ccccc3n2CCN(C)C)cc1` [[1-β-dimethylaminoethyl-2-(4-methoxy-phenyl)-3-indolyl] (2-pyridyl) ketone]: 45%; for `COc1ccc(-c2c(C(=O)c3cccnc3)c3ccccc3n2CCN(C)C)cc1` [[1-β-dimethylaminoethyl-2-(4-methoxy-phenyl)-3-indolyl] (3-pyridyl) ketone]: 133%; for `COc1ccc(-c2c(C(=O)c3ccncc3)c3ccccc3n2CCN(C)C)cc1` [[1-β-dimethylaminoethyl-2-(4-methoxy-phenyl)-3-indolyl] (4-pyridyl) ketone]: 42%.
For the compound `O=C(c1ccncc1)c1c(-c2ccc(Cl)cc2)n(CCN2CCCCC2)c2ccccc12` [[1-β-piperidinoethyl-2-(4-chloro-phenyl)-3-indolyl] (4-pyridyl) ketone], in series [1] (Rattus norvegicus), the change in vivo at 10 mg/kg amounted to 50%.
On to `CN(C)CCCn1c(-c2ccc(F)cc2)c(C(=O)c2cccnc2)c2ccccc21` [[1-γ-dimethylaminopropyl-2-(4-fluoro-phenyl)-3-indolyl] (3-pyridyl) ketone], for which, in series [1] (Rattus norvegicus), the change in vivo at 10 mg/kg amounted to 75%.
`CC(C)c1c(C(=O)c2ccccn2)c2ccccc2n1C` [methyl / isopropyl / 2-pyridyl, (1-methyl-2-isopropyl-3-indolyl) (2-pyridyl) ketone]: the change in vivo at 10 mg/kg in series [1] (setting [8]) worked out at 105%.
Same read-out and setting: the same measure for `CC(C)c1c(C(=O)c2ccncc2)c2ccccc2n1C` [methyl / isopropyl / 4-pyridyl, (1-methyl-2-isopropyl-3-indolyl) (4-pyridyl) ketone]: 165%.
Regarding `CCCn1c(C(C)C)c(C(=O)c2cccnc2)c2ccccc21` [n-propyl / isopropyl / 3-pyridyl, (1-n-propyl-2-isopropyl-3-indolyl) (3-pyridyl) ketone], the change in vivo at 10 mg/kg in series [1] (Rattus norvegicus) was 25%.
Take `CC(C)c1c(C(=O)c2cccnc2)c2ccccc2n1CCN1CCCCC1` [piperidinoethyl / isopropyl / 3-pyridyl, (1-β-piperidinoethyl-2-isopropyl 3-indolyl) (3-pyridyl) ketone]: in series [1] (Rattus norvegicus), the change in vivo at 10 mg/kg worked out at 77%.
